Data on one compound can be found in PMC4559389, “Tumor Detection at 3 Tesla with an Activatable Cell Penetrating Peptide Dendrimer (ACPPD-Gd), a T1 Magnetic Resonance (MR) Molecular Imaging Agent” (PLoS ONE, 2015).

Format in all cases: in vivo, albino C57BL/6 mice
Series [1] deals with Py8119 mammary tumor. In words: T1-weighted MR tumor enhancement at 3T in mice with mammary fat pad tumors. The source says: The University of California San Diego Institutional Animal Care and Use Committee (IACUC) approved this research under protocol S04011. All steps were ensured to minimize pain and suffering of all animals during the course of this experiment. Anesthesia during tumor inoculation and MR imaging was isoflurane/O2. All animals were given free access to food and water ad libitum during the entire study. Euthanasia involved CO2 asphyxiation followed by cervical dislocation. Each of the 4 inguinal nipples of 16 albino C57BL/6 (Harlan Labs) mice were randomized such that each mouse had 2 mammary fat pads inoculated with 10^4 Py8119 mammary tumor cells and the other 2 with an equal volume of saline. […]
All mice were imaged on days 4, 9, and 14 after inoculation under isoflurane/O2 anesthesia. […] Optimal ACPPD-Gd dose and imaging time were previously determined. […]
Tumor signal and size were quantified at each time point using region-of-interest (ROI) analysis with OsiriX software (Pixmeo, Geneva). […] Tumors <1mm^3 were not analyzed because of unreliable ROI placement and partial volume effects. A polygonal ROI was traced around the tumor on the fat-saturated T1-weighted axial sequence at its maximal dimension and the average signal and cross-sectional area recorded. […] Tumor volume was calculated using an ellipsoid function as 4/3*(area of tumor ROI)*(1/2)*(maximal orthogonal coronal diameter). […]

Series [2] concerns Py8119 mammary tumor. In words: Blinded reader tumor detection on 3T MRI (ROC/AUC, inter-observer kappa). Particulars: for AUC (95%CI) of ROC curve for tumor presence, Reader 1 (experienced), all tumors (n = 107) / AUC (95%CI) of ROC curve for tumor presence, Reader 2 (trainee), all tumors (n = 107): 288 breasts, ACPPD-Gd 24 h post, gadobutrol 2–3 min post; for AUC (95%CI) of ROC curve for tumor presence, Reader 1 (experienced), tumors <5mm^3 (n = 58) / AUC (95%CI) of ROC curve for tumor presence, Reader 2 (trainee), tumors <5mm^3 (n = 58): obvious tumors (>5mm^3) removed. The text has this: The acquired 72 studies (3 groups x 8 mice x 3 time points) with 4 pulsing sequences each were anonymized and presented at random to 2 observers blinded to contrast grouping, time since inoculation, and which 2 nipples were inoculated with tumor. Reader 1 is an MR expert with extensive experience in clinical and animal MR image interpretation (RFM) and Reader 2 is a 2nd-year radiology resident in training (ESO). Studies were reviewed independently and readers reported whether the breast tissue under each of the 4 nipples in each study was normal or contained tumor along with their confidence level as low, medium, or high. If a tumor was present they described the degree and pattern of tumor enhancement.
Receiver operating characteristic (ROC) curves were constructed using 4 levels: normal, low, medium and high probability for tumor presence. There were 288 breasts evaluated (3 groups x 8 animals x 3 time-points x 4 breasts). […] Additional ROC curves were constructed for tumors <5mm^3 to assess the potential benefit of ACPPD-Gd in detecting small tumors. Interobserver agreement was assessed for all 288 breasts and within each of the 3 contrast groups using the kappa statistic. Area under the ROC curve (AUC) was calculated for the 3 contrast groups using the JROC web-based program.

A short description of series [3]: Post mortem tissue Gd content by ICP-MS. Particulars: ACPPD-Gd 24 h post, gadobutrol at equilibrium phase. As to the method:
Mice were sacrificed immediately after the 14-day MRI study and tumors, liver, kidneys, and muscle were harvested and immediately frozen at -20°C for later analysis. Tissue Gd content was measured using inductively coupled plasma-mass spectrometry (ICP-MS) on defrosted and weighted tissues. Less than 100mg samples of each tissue were placed in 900uL of nitric acid on a Gyromixer overnight at room temperature. The next day, 200μL of 30% hydrogen peroxide were added, and after 2 hours the samples were heated to 90–100°C for 2 hours. Tuning solution was then added to a 5mL total volume. Samples were then run in an Agilent Technologies 7700 Series ICP-MS to measure gadolinium content in parts-per-billion. Tissue Gd concentration in micromolar was calculated as (ppb of Gd/Gd molecular weight)*(total weight of solution measured/tissue wet weight).

Values joined by “and” are separate entries in the source; they are usually repeats but may differ in a detail not shown here. Identical values can stand only once. “Also recorded” adds a separate entry of the source.

As to `O=C([O-])CN1CCN(CC(=O)[O-])CCN([C@H](CO)[C@H](O)CO)CCN(CC(=O)[O-])CC1.[Gd+3]` (racemic) [gadobutrol, Gd-DO3A-butrol], in the series on Py8119 mammary tumor [1] (3T axial fat-saturated T1w images), the “Pattern of tumor enhancement” value is “more apparent at the tumor periphery; also recorded: enhanced predominantly the tumor rim”. The “T1w tumor enhancement, small tumors (1-5mm^3)” value in the series with Py8119 mammary tumor [1] (3T, ACPPD-Gd 24 h after 0.036 mmol Gd/kg, gadobutrol 2–3 min after 0.1 mmol/kg, mean±SD, p = 0.03) stood at 19±18%. For the same compound, in the series on Py8119 mammary tumor [2], the “AUC (95%CI) of ROC curve for tumor presence, Reader 1 (experienced), all tumors (n = 107)” value was 0.91 and 0.92; the “AUC (95%CI) of ROC curve for tumor presence, Reader 2 (trainee), all tumors (n = 107)” value is recorded as 0.81; the “AUC (95%CI) of ROC curve for tumor presence, Reader 1 (experienced), tumors <5mm^3 (n = 58)” value was determined as 0.86; the “AUC (95%CI) of ROC curve for tumor presence, Reader 2 (trainee), tumors <5mm^3 (n = 58)” value is recorded as 0.69. Besides, in the series on Py8119 mammary tumor [2] (listed as Gadobutrol), the “AUC (95%CI) of ROC curve for tumor presence, Reader 1 (experienced), all tumors (n = 107)” value is 0.92 (0.86, 0.98); the “AUC (95%CI) of ROC curve for tumor presence, Reader 2 (trainee), all tumors (n = 107)” value is recorded as 0.81 (0.73, 0.90); the “AUC (95%CI) of ROC curve for tumor presence, Reader 1 (experienced), tumors <5mm^3 (n = 58)” value is 0.86 (0.75, 0.96); the “AUC (95%CI) of ROC curve for tumor presence, Reader 2 (trainee), tumors <5mm^3 (n = 58)” value was 0.69 (0.57, 0.81). Also, the “Gd biodistribution: organ of dominant accumulation” value in series [3] (ICP-MS of tumors, liver, kidneys, muscle) is reported as “the majority of Gd was in the kidneys”. Moreover, the “Tumor to muscle Gd concentration ratio” value in series [3] (ICP-MS, 14 days after inoculation, mean±SD) came to 2.7 ± 1.0.
